Data: patent US5010005A, “Bio-oxidation of high alcohols in non-aqueous reaction media” (priority 1989, dated 1991)
Values belong to the compound of their own block, whether it stands above or below them.

How the values were obtained:
[1] = target: T1, purified alcohol oxidase from P. pastoris (Komagataella phaffii, UniProt P04842); settings: Patel et al; cited from earlier work
T1 sequence (P04842 2-663 limits assumed): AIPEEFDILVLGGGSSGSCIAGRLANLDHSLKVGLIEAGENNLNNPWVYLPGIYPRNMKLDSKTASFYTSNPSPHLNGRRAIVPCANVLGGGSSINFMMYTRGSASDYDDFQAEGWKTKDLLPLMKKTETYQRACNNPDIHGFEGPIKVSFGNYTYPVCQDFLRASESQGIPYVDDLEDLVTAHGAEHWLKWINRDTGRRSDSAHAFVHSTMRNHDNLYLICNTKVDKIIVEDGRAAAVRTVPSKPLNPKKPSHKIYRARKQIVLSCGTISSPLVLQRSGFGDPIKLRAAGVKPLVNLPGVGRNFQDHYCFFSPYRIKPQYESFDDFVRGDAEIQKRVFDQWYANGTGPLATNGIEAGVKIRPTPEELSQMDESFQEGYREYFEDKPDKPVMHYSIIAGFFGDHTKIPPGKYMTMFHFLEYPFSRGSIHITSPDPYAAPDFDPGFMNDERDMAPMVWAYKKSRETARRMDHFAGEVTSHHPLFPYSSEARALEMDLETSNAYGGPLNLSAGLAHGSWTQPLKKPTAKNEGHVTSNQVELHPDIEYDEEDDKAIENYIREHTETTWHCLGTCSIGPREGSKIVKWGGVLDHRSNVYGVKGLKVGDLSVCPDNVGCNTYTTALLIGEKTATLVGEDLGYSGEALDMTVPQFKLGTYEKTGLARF

[2] = system: whole cells of Pichia pastoris; assay: Conversion of alcohols by whole cells of Pichia pastoris in aqueous reaction media; format: cell-based; settings: for Oxidation by methanol-induced alcohol oxidase from P. pastoris: aqueous reaction media
Description: Pichia pastoris was obtained from the American Type Culture Collection, Rockville, Maryland, U.S.A. (ATCC 28485). The growth and maintenance medium consisted of: KH2 PO4 2.6 g/L; K2 HPO4 0.3 g/L; (NH4)2 SO4 1.5 g/L; MgSO4.7 ·H2 O 0.3 g/L; Difco yeast extract 1.9 g/L; FeSO4 ·7H2 O 1 mg/L; CuSO4 ·5H2 O 5 μg/L; H3 BO3 10 μg/L; MnSO4 ·H2 O 10 μg/L; ZnSO4 ·7H2 O 70 μg/L: NaMoO4 ·2H2 O 10 μg/L. After the medium was autoclaved and cooled, methanol (10 g/L) and a vitamin solution (J.P. van der Walt and A.E. van Kerken, Antonie van Leeuwenkoek 27: 81-90, 1961) (2 mL) were added. Growth of the organism was carried out in Erlenmeyer shake flasks at 30° C. on a reciprocal shaker (200 rpm). After 72 hrs growth, biomass was harvested by centrifugation (4000 g, 5 min) washed with 0.1 M phosphate buffer pH 8, and resuspended in 0.5 M Tris buffer (pH 8).
Unless otherwise stated, the reaction conditions for whole cell systems in aqueous solution (0.5M Tris pH 8) were as follows: 25 ml of the biomass suspension was dispensed into 125 mL serum vials and the substrate was added to the concentration listed in Table 1. The final biomass concentration was 5 g/L. The vials were flushed with oxygen, capped and sealed to prevent loss of reactants or products from the system. The vials were pressurized with oxygen (15 psig) and shaken (200 rpm) at 30° C. during the reaction. A sample was withdrawn following the reaction time listed in Table 1 and centrifuged (15000 g, 1 min) to remove biomass and stop the reaction. The supernatant liquid was diluted 1:1 with internal standard for gas chromatography. In some cases, a portion of the sample was extracted with 9 volumes of warm (50° C.) water, to solubilize insoluble separated product, mixed thoroughly by vortexing, and then diluted 1:1 with internal standard before assaying by gas chromatography. In all experiments the vials were regularly repressurized with oxygen throughout the reaction period.
The substrates and products were assayed using a Hewlett-Packard 5790A gas chromatograph equipped with a Chromasorb 101 packed column. The carrier gas was helium and the column was run isothermally at 220° C. For aqueous reaction systems the internal standard was isopropyl alcohol (20 g/L). In non-aqueous systems octanol (20 g/L) was dissolved in the appropriate solvent and used as internal standard.

alcohol oxidase = target: T2, alcohol oxidase (Komagataella phaffii, UniProt P04842); assay: Conversion of benzyl alcohol to benzaldehyde by purified alcohol oxidase in aqueous two phase systems; format: biochemical, Pichia pastoris; settings: for Reaction Rate: benzyl alcohol 20 g/L
T2 construct: purchased Provesta Corp. (Bartlesville, Oklahoma)
T2 sequence (P04842 2-663 limits assumed): T1 sequence (P04842 2-663 limits assumed)
Description: To determine reaction rates, benzyl alcohol was presolubilized in the solvent of interest to a final concentration of 20 g/L unless otherwise specified. Alcohol oxidase and catalase were premixed in an activity ratio of 1300 U catalase activity per unit of alcohol oxidase activity. In some cases the enzyme mixture was diluted with 0.1 M phosphate buffer (pH 8) to determine the effect of changes in phase volume ratio. The enzyme mixture was then added to the solvent-substrate reaction fluid in a 125 mL serum vial. Reaction conditions were otherwise identical to those described above.
The purified alcohol oxidase was obtained from Provesta Corp. (Bartlesville, Oklahoma) and consisted of a concentrated (35 g/L) protein solution with a specific activity of 14.7 International Enzyme Units (IEU) per milligram of protein. One IEU is defined as the amount of enzyme which will oxidize one micomole of ethanol to acetaldehyde per minute at pH 7.5 at 25° C. The enzyme was stored frozen (-20° C.) until used. Beef liver catalase was obtained from Boehringer Mannheim Inc. as a 20 g/L suspension with a specific activity of 65000 U/mg. It was stored at 4° C.
Benzyl alcohol to benzaldehyde conversion was described in part a) except the percent aqueous phase was varied between 1and 5%.

[3] = format: physicochemical
Description: The partitioning of benzyl alcohol and benzaldehyde between 0.1 M phosphate buffer and each solvent used were measured as follows: benzyl alcohol (10 g/L) and benzaldehyde (10 g/L) were dissolved in each of the solvents of interest. Ten millilitres of each solvent were then dispensed into a test tube containing 10 ml of 0.1 M phosphate buffer (pH 8). The tubes were capped, vortexed, and the mixture was allowed to equilibrate for 1 hr at 30° C. Both phases were then assayed for benzaldehyde and benzyl alcohol as described above. Partition coefficients were expressed as the ratio of the concentration of the solute of interest in the aqueous phase: the concentration of the same compound in the organic phase.
The partition coefficients were determined as in Example 2 but expressed as solute (g/L) in organic phase/solute (g/L) in aqueous phase (see Table 4).

[4] = system: whole cells of Pichia pastoris; assay: Conversion of higher alcohols by whole cells of Pichia pastoris in two-phase (hexane/water) reaction system; format: cell-based; settings: alcohol 30 g/L
Description: Growth of the organism was carried out in Erlenmeyer shake flasks at 30° C. on a reciprocal shaker (200 rpm). After 72 hrs growth, biomass was harvested by centrifugation (4000 g, 5 min) washed with 0.1 M phosphate buffer pH 8, and resuspended in 0.5 M Tris buffer (pH 8).
The method of conversion of higher alcohols using whole cells in a two-phase reaction system was as follows. One gram of Pichia pastoris cell paste (pellet resulting from a 10 minute, 9154 g centrifugation) was placed in a 125 ml serum vial and dispersed in 2 ml of H2 O (aqueous phase).
Then 48 ml of hexane containing the substrate (concentration in Table 1) were added to form the organic phase. The reaction was conducted as described above. Samples from the organic phase were withdrawn at the indicated times (Table 1) and the concentration of aldehyde product determined by gas chromatography.
The carrier gas was helium and the column was run isothermally at 220° C. For aqueous reaction systems the internal standard was isopropyl alcohol (20 g/L). In non-aqueous systems octanol (20 g/L) was dissolved in the appropriate solvent and used as internal standard.

P. pastoris = assay: Bio-oxidation of hexanol to hexanal by P. pastoris in two-phase aqueous (5% v/v)/organic systems; format: cell-based, Pichia pastoris; settings: for Hexanal produced: aqueous phase 5% v/v, 24 h incubation
[5] = system: alkane-induced alcohol oxidase; settings: Kemp et al; cited from earlier work

Structure (SMILES): NCCO [2-amino-ethanol]
Oxidation by purified alcohol oxidase [1]: unable to oxidize

Structure (SMILES): CCCCCCCCO [octanol]
Oxidation by methanol-induced alcohol oxidase from P. pastoris [2]: unable to oxidize

Structure (SMILES): OC1CCCCC1 [cyclohexanol]
Oxidation by purified alcohol oxidase [1]: unable to oxidize

Structure (SMILES): CCCCCCCCCCCO [undecanol]
Oxidation by methanol-induced alcohol oxidase from P. pastoris [2]: unable to oxidize

Structure (SMILES): CC(N)CO (centres unmarked) [2-amino-1-propanol]
Oxidation by purified alcohol oxidase [1]: unable to oxidize

Structure (SMILES): OCc1ccccc1 [benzyl alcohol]
Cumulative benzaldehyde production Concn. (alcohol oxidase; enzyme 1.0 U/mL, time 2.0 h): 2.1 g/L
Cumulative benzaldehyde production Concn. (alcohol oxidase; enzyme 1.0 U/mL, time 4.0 h): 2.8 g/L
Cumulative benzaldehyde production Concn. (alcohol oxidase; enzyme 1.0 U/mL, time 8.0 h): 17 g/L
Cumulative benzaldehyde production Concn. (alcohol oxidase; enzyme 2.5 U/mL, time 2.0 h): 5.1 g/L
Cumulative benzaldehyde production Concn. (alcohol oxidase; enzyme 2.5 U/mL, time 4.0 h): 6.3 g/L
Cumulative benzaldehyde production Concn. (alcohol oxidase; enzyme 5.0 U/mL, time 2.0 h): 9.9 g/L
Cumulative benzaldehyde production Concn. (alcohol oxidase; enzyme 5.0 U/mL, time 4.0 h): 13 g/L
Cumulative benzaldehyde production Concn. (alcohol oxidase; enzyme 7.5 U/mL, time 2.0 h): 13 g/L
Cumulative benzaldehyde production Concn. (alcohol oxidase; enzyme 7.5 U/mL, time 4.0 h): 19 g/L
Cumulative benzaldehyde production Concn. (alcohol oxidase; enzyme 10 U/mL, time 2.0 h): 15 g/L
Cumulative benzaldehyde production Concn. (alcohol oxidase; enzyme 10 U/mL, time 4.0 h, fed-batch addition of benzyl alcohol): 22 g/L
Cumulative benzaldehyde production Concn. (alcohol oxidase; enzyme 15 U/mL, time 2.0 h): 17 g/L
Cumulative benzaldehyde production Concn. (alcohol oxidase; enzyme 15 U/mL, time 4.0 h, fed-batch addition of benzyl alcohol): 32 g/L
Cumulative benzaldehyde production Concn. (alcohol oxidase; enzyme 15 U/mL, time 8.0 h, fed-batch addition of benzyl alcohol): 45 g/L
Initial rate of benzaldehyde production (alcohol oxidase; enzyme concentration 1.0 U/mL (0.06 g/L)): 1.4 g/L h
Initial rate of benzaldehyde production (alcohol oxidase; enzyme concentration 2.5 U/mL (0.16 g/L)): 3.4 g/L h
Initial rate of benzaldehyde production (alcohol oxidase; enzyme concentration 5.0 U/mL (0.31 g/L)): 6.3 g/L h
Initial rate of benzaldehyde production (alcohol oxidase; enzyme concentration 7.5 U/mL (0.47 g/L)): 8.6 g/L h
Initial rate of benzaldehyde production (alcohol oxidase; enzyme concentration 10 U/mL (0.63 g/L)): 10.3 g/L h
Initial rate of benzaldehyde production (alcohol oxidase; enzyme concentration 15 U/mL (0.94 g/L)): 11.7 g/L h
Relative Reaction Rate (alcohol oxidase; reaction fluid Chloroform): 0.03
Reaction Rate (alcohol oxidase; reaction fluid Chloroform): 0.07 g/L h
Relative Reaction Rate (alcohol oxidase; reaction fluid Ether): 0.19
Reaction Rate (alcohol oxidase; reaction fluid Ether): 0.39 g/L h
Relative Reaction Rate (alcohol oxidase; reaction fluid Ethylacetate): 0.04
Reaction Rate (alcohol oxidase; reaction fluid Ethylacetate): 0.09 g/L h
Relative Reaction Rate (alcohol oxidase; reaction fluid Hexane): 1.0
Reaction Rate (alcohol oxidase; reaction fluid Hexane): 2.08 g/L h
Relative Reaction Rate (alcohol oxidase; reaction fluid Toluene): 0.49
Reaction Rate (alcohol oxidase; reaction fluid Toluene): 1.01 g/L h
Substrate concentration up to which optimum reaction rates (85% of Vmax) could be maintained (alcohol oxidase; two phase system, hexane): up to 54 g/L
inhibition at 20000 µg/mL ([2]; Komagataella pastoris, read-out: Reduction of reaction rate by substrate inhibition): ~60%
Substrate concentration at which strong inhibition of the reaction is observed ([2]; whole cells in aqueous reaction fluid): greater than 20 g/L

Structure (SMILES): CCCCCCCCCCO [decanol]
Oxidation by methanol-induced alcohol oxidase from P. pastoris [2]: unable to oxidize

Structure (SMILES): CC(C)(C)O [tert butanol]
Oxidation by purified alcohol oxidase [1]: unable to oxidize

Structure (SMILES): CCCCCCCCCO [nonanol]
Oxidation by methanol-induced alcohol oxidase from P. pastoris [2]: unable to oxidize

Structure (SMILES): CCCCCCCO [heptanol]
Oxidation by methanol-induced alcohol oxidase from P. pastoris [2]: unable to oxidize

Partition coefficient [3]: greater than unity
Structure (SMILES): CCCCCC=O [hexanal]

Structure (SMILES): CCCCCCO [hexanol]
Aldehyde concentration, 2-phase ([4]; reaction time 6 h): 10.6 g/L
Aldehyde concentration, 2-phase ([4]; reaction time 24 h): 12.4 g/L
Hexanal produced (P. pastoris; Chloroform): 1.0 g/L
Hexanal produced (P. pastoris; Ether): 2.7 g/L
Hexanal produced (P. pastoris; Ethyl acetate): 2.4 g/L
Hexanal produced (P. pastoris; Hexane): 8.7 g/L
Hexanal produced (P. pastoris; Toluene): 2.4 g/L
Hexanol concentration completely oxidized (P. pastoris; water-hexane two-phase system): up to 10 g/L
Aldehyde concentration, aqueous ([2]; alcohol 30 g/L, reaction time 12 h): 5.0 g/L

Structure (SMILES): CCCCCCCCCCCCO [dodecanol]
Substrate specificity of alkane-induced alcohol oxidase [5]: optimum activity
